ChEMBL document CHEMBL1157172, “Rational design, synthesis, and in vivo evaluation of the antileukemic activity of six new alkylating steroidal esters” (Bioorg Med Chem, 2008)
The source made the active and inactive calls. The rule behind the calls is not given here.

Key:
P388 [1] = assay: Antitumor activity in BDF1 mouse bearing P388 cells assessed as mean survival days at 12.5 mg/kg/day, ip; assay type: functional; settings: route intraperitoneal
P388 [2] = assay: Antitumor activity in BDF1 mouse bearing P388 cells assessed as number of cured mouse at 12.5 mg/kg/day, ip after 90 days; assay type: functional, organism-based
L1210 [3] = assay: Increase in median life span in BDF1 mouse L1210 cells at 12.5 mg/kg/day, ip relative to corn oil; assay type: functional; settings: route intraperitoneal
P388 [4] = assay: Increase in median life span in BDF1 mouse bearing P388 cells at 12.5 mg/kg/day, ip relative to corn oil; assay type: functional; settings: route intraperitoneal
[5] = (§1) Acute toxicity in ip dosed BALB/c mouse after 30 days; assay type: organism-based; settings: BALB/c, in vivo
Mus musculus = assay: as §1; assay type: organism-based; settings: in vivo, 720 h
L1210 [6] = assay: Antitumor activity in BDF1 mouse L1210 cells assessed as number of cured mouse at 12.5 mg/kg/day, ip after 90 days; assay type: functional, organism-based
L1210 [7] = assay: Antitumor activity in BDF1 mouse L1210 cells assessed as mean survival days at 12.5 mg/kg/day, ip; assay type: functional; settings: route intraperitoneal
L1210 [8] = assay: Antitumor activity in BDF1 mouse L1210 cells assessed as number of cured mouse at 30 mg/kg/day, ip after 90 days; assay type: functional, organism-based
P388 [9] = assay: Increase in median life span in BDF1 mouse bearing P388 cells at 30 mg/kg/day, ip relative to corn oil; assay type: functional; settings: route intraperitoneal
L1210 [10] = assay: Antitumor activity in BDF1 mouse L1210 cells assessed as mean survival days at 30 mg/kg/day, ip; assay type: functional; settings: route intraperitoneal
P388 [11] = assay: Antitumor activity in BDF1 mouse bearing P388 cells assessed as mean survival days at 30 mg/kg/day, ip; assay type: functional; settings: route intraperitoneal
L1210 [12] = assay: Increase in median life span in BDF1 mouse L1210 cells at 30 mg/kg/day, ip relative to corn oil; assay type: functional; settings: route intraperitoneal
P388 [13] = assay: Increase in median life span in BDF1 mouse bearing P388 cells at 120 mg/kg/day, ip relative to corn oil; assay type: functional; settings: route intraperitoneal
L1210 [14] = assay: Antitumor activity in BDF1 mouse L1210 cells assessed as mean survival days at 120 mg/kg/day, ip; assay type: functional; settings: route intraperitoneal
L1210 [15] = assay: Increase in median life span in BDF1 mouse L1210 cells at 120 mg/kg/day, ip relative to corn oil; assay type: functional; settings: route intraperitoneal
P388 [16] = assay: Antitumor activity in BDF1 mouse bearing P388 cells assessed as mean survival days at 120 mg/kg/day, ip; assay type: functional; settings: route intraperitoneal
L1210 [17] = assay: Antitumor activity in BDF1 mouse L1210 cells assessed as number of cured mouse at 120 mg/kg/day, ip after 90 days; assay type: functional, organism-based
P388 [18] = assay: Increase in median life span in BDF1 mouse bearing P388 cells at 22 mg/kg/day, ip relative to corn oil; assay type: functional; settings: route intraperitoneal
L1210 [19] = assay: Increase in median life span in BDF1 mouse L1210 cells at 22 mg/kg/day, ip relative to corn oil; assay type: functional; settings: route intraperitoneal
P388 [20] = assay: Antitumor activity in BDF1 mouse bearing P388 cells assessed as number of cured mouse at 22 mg/kg/day, ip after 90 days; assay type: functional, organism-based
L1210 [21] = assay: Antitumor activity in BDF1 mouse L1210 cells assessed as number of cured mouse at 22 mg/kg/day, ip after 90 days; assay type: functional, organism-based
P388 [22] = assay: Antitumor activity in BDF1 mouse bearing P388 cells assessed as mean survival days at 22 mg/kg/day, ip; assay type: functional; settings: route intraperitoneal
L1210 [23] = assay: Antitumor activity in BDF1 mouse L1210 cells assessed as mean survival days at 22 mg/kg/day, ip; assay type: functional; settings: route intraperitoneal
P388 [24] = assay: Antitumor activity in BDF1 mouse bearing P388 cells assessed as mean survival days at 7.5 mg/kg/day, ip; assay type: functional; settings: route intraperitoneal
L1210 [25] = assay: Antitumor activity in BDF1 mouse L1210 cells assessed as number of cured mouse at 7.5 mg/kg/day, ip after 90 days; assay type: functional, organism-based
L1210 [26] = assay: Increase in median life span in BDF1 mouse L1210 cells at 7.5 mg/kg/day, ip relative to corn oil; assay type: functional; settings: route intraperitoneal
L1210 [27] = assay: Antitumor activity in BDF1 mouse L1210 cells assessed as mean survival days at 7.5 mg/kg/day, ip; assay type: functional; settings: route intraperitoneal
P388 [28] = assay: Increase in median life span in BDF1 mouse bearing P388 cells at 7.5 mg/kg/day, ip relative to corn oil; assay type: functional; settings: route intraperitoneal
P388 [29] = assay: Antitumor activity in BDF1 mouse bearing P388 cells assessed as number of cured mouse at 7.5 mg/kg/day, ip after 90 days; assay type: functional, organism-based
L1210 [30] = assay: Antitumor activity in BDF1 mouse L1210 cells assessed as number of cured mouse at 50 mg/kg/day, ip after 90 days; assay type: functional, organism-based
L1210 [31] = assay: Increase in median life span in BDF1 mouse L1210 cells at 50 mg/kg/day, ip relative to corn oil; assay type: functional; settings: route intraperitoneal
P388 [32] = assay: Increase in median life span in BDF1 mouse bearing P388 cells at 50 mg/kg/day, ip relative to corn oil; assay type: functional; settings: route intraperitoneal
P388 [33] = assay: Antitumor activity in BDF1 mouse bearing P388 cells assessed as mean survival days at 50 mg/kg/day, ip; assay type: functional; settings: route intraperitoneal
L1210 [34] = assay: Antitumor activity in BDF1 mouse L1210 cells assessed as mean survival days at 50 mg/kg/day, ip; assay type: functional; settings: route intraperitoneal
P388 [35] = assay: Antitumor activity in BDF1 mouse bearing P388 cells assessed as number of cured mouse at 50 mg/kg/day, ip after 90 days; assay type: functional, organism-based
P388 [36] = assay: Increase in median life span in BDF1 mouse bearing P388 cells at 200 mg/kg/day, ip relative to corn oil; assay type: functional; settings: route intraperitoneal
L1210 [37] = assay: Increase in median life span in BDF1 mouse L1210 cells at 200 mg/kg/day, ip relative to corn oil; assay type: functional; settings: route intraperitoneal
L1210 [38] = assay: Antitumor activity in BDF1 mouse L1210 cells assessed as number of cured mouse at 200 mg/kg/day, ip after 90 days; assay type: functional, organism-based
P388 [39] = assay: Antitumor activity in BDF1 mouse bearing P388 cells assessed as mean survival days at 200 mg/kg/day, ip; assay type: functional; settings: route intraperitoneal
L1210 [40] = assay: Antitumor activity in BDF1 mouse L1210 cells assessed as mean survival days at 200 mg/kg/day, ip; assay type: functional; settings: route intraperitoneal
P388 [41] = assay: Antitumor activity in BDF1 mouse bearing P388 cells assessed as number of cured mouse at 200 mg/kg/day, ip after 90 days; assay type: functional, organism-based

Structure (SMILES): CC(=O)N[C@H]1CC[C@H]2[C@@H]3C(=O)C=C4C[C@@H](OC(=O)Cc5ccc(N(CCCl)CCCl)cc5)CC[C@]4(C)[C@H]3CC[C@]12C
- Survival (P388 [1]): 29.8 days
- Activity (P388 [2]): inactive
- Activity (L1210 [3]): 243%
- Activity (P388 [4]): 314%
- LD50 at 720 h [5]: 75 mg/kg
- LD10 (Mus musculus): 25 mg/kg
- Activity (L1210 [6]): inactive
- Survival (L1210 [7]): 26.3 days

Structure (SMILES): CC(=O)N[C@H]1CC[C@H]2[C@@H]3NC(=O)C=C4C[C@@H](OC(=O)Cc5ccc(N(CCCl)CCCl)cc5)CC[C@]4(C)[C@H]3CC[C@]12C
- Activity (L1210 [8]): inactive
- Activity (P388 [9]): 221%
- LD50 at 720 h [5]: 80 mg/kg
- LD10 (Mus musculus): 60 mg/kg
- Survival (L1210 [10]): 15.6 days
- Survival (P388 [11]): 21 days
- Activity (L1210 [12]): 144.4%

Structure (SMILES): CC(=O)N[C@H]1CC[C@H]2[C@@H]3NC(=O)C=C4C[C@@H](OC(=O)c5ccc(C)c(N(CCCl)CCCl)c5)CC[C@]4(C)[C@H]3CC[C@]12C
- Activity (P388 [13]): 300%
- Survival (L1210 [14]): 20.5 days
- Activity (L1210 [15]): 189.8%
- Survival (P388 [16]): 28.5 days
- LD50 at 720 h [5]: 280 mg/kg
- LD10 (Mus musculus): 240 mg/kg
- Activity (L1210 [17]): inactive

Structure (SMILES): CC(=O)N[C@H]1CC[C@H]2[C@@H]3C(=O)C=C4C[C@@H](OC(=O)CCCc5ccc(N(CCCl)CCCl)cc5)CC[C@]4(C)[C@H]3CC[C@]12C
- Activity (P388 [18]): 198%
- Activity (L1210 [19]): 150%
- LD50 at 720 h [5]: 87 mg/kg
- LD10 (Mus musculus): 44 mg/kg
- Activity (P388 [20]): inactive
- Activity (L1210 [21]): inactive
- Survival (P388 [22]): 18.8 days
- Survival (L1210 [23]): 16.2 days

Structure (SMILES): O=C(O)CCCc1ccc(N(CCCl)CCCl)cc1 [CHLORAMBUCIL]
- Survival (P388 [24]): 14.7 days
- Activity (L1210 [25]): inactive
- Activity (L1210 [26]): 114%
- LD50 at 720 h [5]: 24 mg/kg
- LD10 (Mus musculus): 15 mg/kg
- Survival (L1210 [27]): 12.3 days
- Activity (P388 [28]): 155%
- Activity (P388 [29]): inactive

Structure (SMILES): CC(=O)N[C@H]1CC[C@H]2[C@@H]3NC(=O)C=C4C[C@@H](OC(=O)CCCc5ccc(N(CCCl)CCCl)cc5)CC[C@]4(C)[C@H]3CC[C@]12C
- Activity (L1210 [30]): inactive
- Activity (L1210 [31]): 140.7%
- LD50 at 720 h [5]: 180 mg/kg
- LD10 (Mus musculus): 100 mg/kg
- Activity (P388 [32]): 231%
- Survival (P388 [33]): 22 days
- Survival (L1210 [34]): 15.2 days
- Activity (P388 [35]): inactive

Structure (SMILES): CC(=O)N[C@H]1CC[C@H]2[C@@H]3C(=O)C=C4C[C@@H](OC(=O)c5ccc(C)c(N(CCCl)CCCl)c5)CC[C@]4(C)[C@H]3CC[C@]12C
- Activity (P388 [36]): 153%
- Activity (L1210 [37]): 127%
- LD50 at 720 h [5]: 600 mg/kg
- LD10 (Mus musculus): 400 mg/kg
- Activity (L1210 [38]): inactive
- Survival (P388 [39]): 14.6 days
- Survival (L1210 [40]): 13.7 days
- Activity (P388 [41]): inactive
